In patent US20240216352A1 (priority 2022, published 2024):
Where “and” joins values, the source holds several entries; their conditions need not be identical. Equal values may be shown once.

Experiments:
[1] = system: healthy Japanese participants; assay: Phase 1 Part C MAD Japanese cohorts: blood pressure; type: in vivo, human
Protocol: The study was performed in 3 parts in 112 healthy male and female participants, including 24 Japanese participants. Female participants were to be not of childbearing potential. The present study was designed to evaluate the safety and tolerability, PK, and exploratory PD of an oral suspension of Compound A. Parts A and B (Cohort B1 only) enrolled healthy participants and was conducted at a site in The Netherlands and Part B (Cohort B2 to B5) enrolled healthy non-Japanese participants and was conducted at a site in the United Kingdom (UK). Part C enrolled healthy Japanese participants and was conducted at the same site in the UK.
Part C was a MAD study in 3 sequential dose escalation cohorts (30 mg BID, 60 mg BID, and 90 mg BID) of 8 healthy Japanese participants (6 active+2 placebo) each. Eligible participants in Cohorts C1 to C3 received study drug (Compound A or placebo) administered orally for 14 days.
Physical examinations, vital sign measurements (including orthostasis testing in Cohort A6, Cohort B3 to B5, and C1 to C3 at selected time points), 12-lead electrocardiogram (ECG), and clinical laboratory evaluations were performed at selected times throughout the study. In addition, Holter monitoring was performed for the first 24 hours post dose on Day 1 in Part A (not in FE/pH cohort), and also for the first 24 hours post dose on Day 1 and Day 14 in Parts B and C. Participants were closely monitored for adverse events (AEs). Blood samples were collected for up to 14 days (follow-up visit) after (last) study drug administration for PK analysis. In addition, blood and urine were collected for exploratory biomarker assessments and for biobanking of samples for potential analyses. Urine was collected for potential PK analysis for up to 96 hours after a single dose of Compound A or placebo was administered in the SAD part, and for up to 24 hours after the first (morning) dose of study drug on Day 1 and for up to 24 hours after the last (morning) dose of study drug on Day 14 in the MAD parts.

LPA1 [2] = target: T1, LPA1 (Homo sapiens, UniProt Q92633); assay: LPA1 antagonism (Kb) in CHO cells overexpressing human LPA1; type: cell-based; design: expressed in transfected cells; host or cells: CHO cells
Excerpt: (§1) Compound A is currently in clinical development as a therapy for IPF and PF-ILD.

participants with IPF = assay: Phase 2 study, IPF cohort: efficacy (ppFVC, FVC); type: in vivo, human; conditions: for Efficacy versus PBO (ppFVC, FVC): Week 26, overall population with and without SoC; for Relative reduction in rate of decline in ppFVC vs PBO: Week 26, overall; for Slope difference in rate of decline in FVC, 60 mg - PBO: adjusted for age, gender, height
Protocol: A total of 278 participants with IPF were randomized and 276 participants were treated as of the final analyses data cut-off (4 Aug. 2022). Male and female participants […] with IPF and percent predicted forced vital capacity (ppFVC) […] and percent predicted DLCO (ppDLCO)≥25%; diagnosed within 7 years of screening; having a centrally-read chest HRCT obtained at screening that was consistent with UIP or probable UIP, or having a lung biopsy consistent with UIP, were eligible to enter the study. The mean baseline ppFVC for all subjects was 76.5%. In the primary IPF cohort, participants were randomized (1:1:1) to receive 30 mg or 60 mg Compound A or placebo (PBO) twice daily for 26 weeks. Participants were stratified by standard of care (SoC) IPF therapy (pirfenidone versus nintedanib versus none) and region (Japan versus Rest of World) at randomization.
The primary objective of the study was to determine the rate of change in ppFVC from baseline to Week 26. The primary objective was evaluated with a two estimand framework to handle the intercurrent event of dose reduction to 10 mg BID or matching PBO when pre-specified low BP criteria is met. The primary estimand is adopted to estimate treatment effect when dose reduction is implemented. The supplementary estimand is adopted to estimate the effect of treatment without dose reduction.
Analysis Strategy: The primary estimand was to evaluate the efficacy of Compound A at 30 mg or 60 mg twice daily, compared to PBO in IPF participants who met the enrollment criteria, with or without use of SoC. The rate of decline in ppFVC (%) from baseline to Week 26 was compared using the difference between each dose and PBO as a population level summary regardless of dose reduction or treatment discontinuation for any reason (treatment policy strategy).
Analysis Strategy: The supplementary estimand for the primary objective is to evaluate the efficacy of Compound A at 30 mg or 60 mg twice daily without dose reduction, compared to the PBO in IPF subjects who met the enrollment criteria, with or without use of SoC. The rate of decline in ppFVC (%) from baseline to Week 26 has been compared using the difference between each dose and PBO as a population level summary regardless of treatment discontinuation for any reason (treatment policy strategy). In the event of dose reduction, data collected after dose reduction will not be considered relevant to the treatment effect of interest and therefore, will be treated as missing (while-on-treatment strategy).

LPA1 [3] = target: T1, LPA1; assay: LPA1 antagonism (Kb) in normal human lung fibroblasts; type: cell-based; design: LPA1Kb=5.9 nM in normal human lung fibroblasts; endogenous in cells; host or cells: normal human lung fibroblasts
Excerpt: as §1

[4] = 60 mg BID, baseline to Week 26, No SoC, supplementary estimand
[5] = 60 mg BID, baseline to Week 26, overall, primary estimand
[6] = 60 mg BID, baseline to Week 26, overall, supplementary estimand

T1 sequence (Q92633 whole entry): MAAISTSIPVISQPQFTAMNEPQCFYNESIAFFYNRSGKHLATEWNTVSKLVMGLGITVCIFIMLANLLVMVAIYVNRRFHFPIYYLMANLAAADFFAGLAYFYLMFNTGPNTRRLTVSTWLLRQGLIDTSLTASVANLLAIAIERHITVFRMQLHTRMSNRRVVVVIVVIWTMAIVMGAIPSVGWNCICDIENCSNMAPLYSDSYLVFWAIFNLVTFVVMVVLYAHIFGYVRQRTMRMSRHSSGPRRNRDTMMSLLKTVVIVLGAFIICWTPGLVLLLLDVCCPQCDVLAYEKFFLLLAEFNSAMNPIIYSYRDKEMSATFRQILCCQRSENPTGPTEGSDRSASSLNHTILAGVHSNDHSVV

CCCN(C)C(=O)OCc1c(-c2ccc(O[C@H]3CCC[C@H](C(=O)O)C3)c(C)n2)nnn1C [Compound A, (1S,3S)-3-((2-methyl-6-(1-methyl-5-(((methyl(propyl)carbamoyl)-oxy)methyl)-1H-1,2,3-triazol-4-yl)pyridin-3-yl)oxy)cyclohexane-1-carboxylic acid]
Maximum of mean (±SD) reduction in DBP from baseline (column printed under the head Baseline (mmHg)) ([1]; Japanese MAD 30 BID (C1)): 8.8 ± 5.12 mmHg
Maximum of mean (±SD) reduction in SBP from baseline ([1]; Japanese MAD 30 BID (C1)): 15.0 ± 6.84 mmHg
Time of maximum mean SBP reduction ([1]; Japanese MAD 30 BID (C1)): 1-4 Day-h
Maximum of mean (±SD) reduction in DBP from baseline (column printed under the head Baseline (mmHg)) ([1]; Japanese MAD 60 BID (C2)): 8.2 ± 10.40 mmHg
Maximum of mean (±SD) reduction in SBP from baseline ([1]; Japanese MAD 60 BID (C2)): 13.0 ± 8.22 mmHg
Time of maximum mean DBP reduction ([1]; Japanese MAD 60 BID (C2)): 4-16 Day-h
Time of maximum mean SBP reduction ([1]; Japanese MAD 60 BID (C2)): 2-16 Day-h
Maximum of mean (±SD) reduction in DBP from baseline (column printed under the head Baseline (mmHg)) ([1]; Japanese MAD 90 BID (C2)): 8.0 ± 8.22 mmHg
Maximum of mean (±SD) reduction in SBP from baseline ([1]; Japanese MAD 90 BID (C2)): 11.8 ± 8.47 mmHg
Time of maximum mean DBP reduction ([1]; Japanese MAD 90 BID (C2)): 1-6 Day-h
Time of maximum mean SBP reduction ([1]; Japanese MAD 90 BID (C2)): 1-6 Day-h
Dose dependence of mean BP reduction ([1]; Japanese MAD cohorts): no clear Compound A dose-dependent BP reduction trend
Kb (LPA1 [2]): 6.9 nM
Acute exacerbations of lung fibrosis, patients (participants with IPF; 30 mg BID): 3 n
Efficacy versus PBO (ppFVC, FVC) (participants with IPF; 30 mg BID): did not demonstrate efficacy compared to PBO
Rate of change in ppFVC over 26 weeks (participants with IPF; 30 mg BID, treatment policy strategy): −2.8%
Rate of change in ppFVC over 26 weeks (participants with IPF; 30 mg BID, while-on-treatment strategy): −3.2%
Acute exacerbations of lung fibrosis, patients (participants with IPF; 60 mg BID): 1 n
Relative treatment benefit in ppFVC decline vs PBO (participants with IPF; 60 mg BID, Week 26, No SoC, primary estimand): 113%
Relative treatment benefit in ppFVC decline vs PBO (participants with IPF; 60 mg BID, Week 26, No SoC, supplementary estimand): 123%
Relative treatment benefit in ppFVC decline vs PBO (participants with IPF; 60 mg BID, Week 26, on background SoC, primary estimand): 39%
Relative treatment benefit in ppFVC decline vs PBO (participants with IPF; 60 mg BID, Week 26, on background SoC, supplementary estimand): 44%
Efficacy versus PBO (ppFVC, FVC) (participants with IPF; 60 mg BID): demonstrated favorable treatment responses versus PBO
Relative reduction in rate of decline in ppFVC vs PBO (participants with IPF; 60 mg BID, primary estimand (treatment policy)): 54%
Relative reduction in rate of decline in ppFVC vs PBO (participants with IPF; 60 mg BID, supplementary estimand (while-on-treatment)): 62%
Slope difference in rate of decline in ppFVC, 60 mg - PBO (participants with IPF; 60 mg BID, baseline to Week 26, No SoC, primary estimand): 2.01±1.7% and 2.01%
Estimated rate of decline in ppFVC, slope (participants with IPF; [4]): 0.471
Slope difference in rate of decline in ppFVC, 60 mg - PBO (participants with IPF; [4]): 2.55±1.73% and 2.55%
Estimated rate of decline in ppFVC, slope (participants with IPF; 60 mg BID, baseline to Week 26, SoC, supplementary estimand): −1.772
Slope difference in rate of decline in ppFVC, 60 mg - PBO (participants with IPF; 60 mg BID, baseline to Week 26, on background SoC, primary estimand): 1.22±0.87% and 1.22%
Slope difference in rate of decline in ppFVC, 60 mg - PBO (participants with IPF; 60 mg BID, baseline to Week 26, on background SoC, supplementary estimand): 1.41±0.89% and 1.41%
Slope of decline in FVC, 60 mg arm (participants with IPF; [5]): -54.3 ± 20.76 mL
Slope difference in rate of decline in ppFVC, 60 mg - PBO (participants with IPF; 60 mg BID, baseline to Week 26, overall, primary estimand (treatment policy)): 1.45±0.81% and 1.4% and 1.45%
Slope difference in rate of decline in FVC, 60 mg - PBO (participants with IPF; [5]): 46.9 ± 29.14 mL and 46.9 mL
Estimated rate of decline in ppFVC, slope (participants with IPF; [6]): −1.1% and −1.08%
Slope of decline in FVC, 60 mg arm (participants with IPF; [6]): -47.2 ± 20.92 mL
Slope difference in rate of decline in ppFVC, 60 mg - PBO (participants with IPF; 60 mg BID, baseline to Week 26, overall, supplementary estimand (while-on-treatment)): 1.77±0.82% and 1.8% and 1.77%
Slope difference in rate of decline in FVC, 60 mg - PBO (participants with IPF; [6]): 61.4 mL
Posterior probability of a positive treatment difference vs placebo (Bayesian analysis) (participants with IPF; 60 mg BID, under both estimand strategies): > 95%
Adjusted mean treatment difference in absolute change in FVC vs placebo (participants with IPF; 60 mg BID, week 26): 45.5 mL
Kb (LPA1 [3]): 5.9 nM
